Laboratory results taken from ChEMBL document CHEMBL1122998, “New antihistaminic theophylline or theobromine derivatives” (1985).

Legend:
Rattus norvegicus [1] = assay: Percent protection against Passive Cutaneous Anaphylaxis in rat after 4.0h at dose 100 mg/kg by peroral administration through antigen or antibody reaction; format: functional; conditions: route oral
Rattus norvegicus [2] = assay: Percent protection against Passive Cutaneous Anaphylaxis in rat after 3.0 hh at dose 100 mg/kg by peroral administration through antigen or antibody reaction; format: functional; conditions: route oral
Cavia porcellus [3] = assay: Percent decrease in bronchodilator activity against acetylcholine-induced bronchospasm reaction in guinea pig by intraveneous administration at dose 250 ug/kg; format: functional
Rattus norvegicus [4] = assay: Percent protection against Passive Cutaneous Anaphylaxis in rat after 0.25 hr at dose 100 mg/kg by peroral administration through exogenous histamine reaction; format: functional; conditions: route oral
Rattus norvegicus [5] = assay: Percent decrease in antiallergic activity by antigen/antibody reaction assay in rat by oral administration at a dose of 10 mg/kg; format: functional
Rattus norvegicus [6] = assay: Percentage decrease in antiallergic activity against cutaneous reaction to histamine in rat, by oral administration at a dose of 10 mg/kg; format: functional
Rattus norvegicus [7] = assay: Percent protection against Passive Cutaneous Anaphylaxis in rat after 0.25 hr at dose 100 mg/kg by peroral administration through antigen or antibody reaction; format: functional; conditions: route oral
Rattus norvegicus [8] = assay: Percent protection against Passive Cutaneous Anaphylaxis in rat after 1.0 hr at dose 100 mg/kg by peroral administration through exogenous histamine reaction; format: functional; conditions: route oral
Cavia porcellus [9] = assay: Percent decrease in bronchodilator activity against histamine-induced bronchospasm reaction in guinea pig by intraveneous administration at dose 10.5 ug/kg
Rattus norvegicus [10] = assay: Percent protection against Passive Cutaneous Anaphylaxis in rat after 2.0 hr at dose 100 mg/kg by peroral administration through antigen or antibody reaction; format: functional; conditions: route oral
Rattus norvegicus [11] = assay: Percent protection against Passive Cutaneous Anaphylaxis in rat after 1.0 hr at dose 100 mg/kg by peroral administration through antigen or antibody reaction; format: functional; conditions: route oral
Cavia porcellus [12] = assay: Percentage decrease in bronchodilator activity against serotonin-induced bronchospasm reaction in guinea pig by intraveneous administration at dose 250 ug/kg; format: functional
Rattus norvegicus [13] = assay: Percent protection against Passive Cutaneous Anaphylaxis in rat after 3.0 hh at dose 100 mg/kg by peroral administration through exogenous histamine reaction; format: functional; conditions: route oral
Rattus norvegicus [14] = assay: Percent protection against Passive Cutaneous Anaphylaxis in rat after 4.0h at dose 100 mg/kg by peroral administration through exogenous histamine reaction; format: functional; conditions: route oral
Rattus norvegicus [15] = assay: Percent protection against Passive Cutaneous Anaphylaxis in rat after 2.0 hr at dose 100 mg/kg by peroral administration through exogenous histamine reaction; format: functional; conditions: route oral
Cavia porcellus [16] = assay: Percent decrease in bronchodilator activity against histamine-induced bronchospasm reaction in guinea pig by intraveneous administration at dose 4 mg/kg
Cavia porcellus [17] = assay: Percent decrease in bronchodilator activity against histamine-induced bronchospasm reaction in guinea pig by intraveneous administration at dose 250 ug/kg; format: functional

SMILES	Protection (Rattus norvegicus [1]) [%]	Protection (Rattus norvegicus [2]) [%]	Decrease (Cavia porcellus [3]) [%]	Protection (Rattus norvegicus [4]) [%]	Decrease (Rattus norvegicus [5]) [%]	Decrease (Rattus norvegicus [6]) [%]	Protection (Rattus norvegicus [7]) [%]	Protection (Rattus norvegicus [8]) [%]	Decrease (Cavia porcellus [9]) [%]	Protection (Rattus norvegicus [10]) [%]	Protection (Rattus norvegicus [11]) [%]	Decrease (Cavia porcellus [12]) [%]	Protection (Rattus norvegicus [13]) [%]	Protection (Rattus norvegicus [14]) [%]	Protection (Rattus norvegicus [15]) [%]	Decrease (Cavia porcellus [16]) [%]	Decrease (Cavia porcellus [17]) [%]
Cn1c(=O)c2c(ncn2CC(O)CN2CCN(CCCSc3ccccc3)CC2)n(C)c1=O (stereo not given) [TAZIFYLLINE]	44	74	23	52	54	65	100	49	76	82	98	26	52	39	33	–	–
Cn1c(=O)c2nc[nH]c2n(C)c1=O.O [THEOPHYLLINE]	–	–	72	–	45	15	–	–	–	–	–	59	–	–	–	56	–
Cn1c(=O)c2c(ncn2CCCN2CCN(CCCSc3ccccc3)CC2)n(C)c1=O	0	0	23	46	60	62	98	23	95	45	45	69	0	0	28	–	–
Cn1c(=O)c2c(ncn2CCCN2CCN(CCOc3ccccc3)CC2)n(C)c1=O	–	–	15	–	0	0	–	–	70	–	–	0	–	–	–	–	–
Cc1ccc(SCCCN2CCN(CC(O)Cn3cnc4c3c(=O)n(C)c(=O)n4C)CC2)cc1 (stereo not given)	–	–	0	–	19	24	–	–	5	–	–	0	–	–	–	–	–
Cn1c(=O)c2c(ncn2C/C=C/CN2CCN(CCCSc3ccccc3)CC2)n(C)c1=O	–	–	0	–	8	4	–	–	8	–	–	20	–	–	–	–	–
Cn1c(=O)c2c(ncn2CCCN2CCN(CCCCSc3ccc(Cl)cc3)CC2)n(C)c1=O	–	–	26	–	0	0	–	–	3	–	–	23	–	–	–	–	–
Cn1c(=O)c2c(ncn2CC(O)CN2CCCN(CCCSc3ccccc3)CC2)n(C)c1=O (stereo not given)	–	–	0	–	0	4	–	–	74	–	–	0	–	–	–	–	–
CC(=O)OC(CN1CCN(CCCSc2ccccc2)CC1)Cn1cnc2c1c(=O)n(C)c(=O)n2C (stereo not given)	–	–	17	–	54	62	–	–	–	–	–	29	–	–	–	–	50
Cc1ccc(SCCCN2CCN(CC(O)Cn3c(=O)c4c(ncn4C)n(C)c3=O)CC2)cc1 (stereo not given)	–	–	29	–	11	4	–	–	10	–	–	42	–	–	–	–	–
COc1ccc(OCCCN2CCN(CC(O)Cn3c(=O)c4c(ncn4C)n(C)c3=O)CC2)cc1 (stereo not given)	–	–	11	–	0	0	–	–	28	–	–	3	–	–	–	–	–
CC(CN1c2ccccc2Sc2ccccc21)N(C)C (stereo not given) [PROMETHAZINE]	–	–	0	–	30	58	–	–	40	–	–	0	–	–	–	–	–
Cn1c(=O)c2c(ncn2CCN2CCN(CCCSc3ccccc3)CC2)n(C)c1=O	–	–	0	–	28	21	–	–	0	–	–	48	–	–	–	–	–
CC(C(=O)N1CCN(CCCSc2ccccc2)CC1)n1cnc2c1c(=O)n(C)c(=O)n2C (stereo not given)	–	–	4	–	5	6	–	–	3	–	–	0	–	–	–	–	–
Cc1ccc(SCCCN2CCN(CCCn3c(=O)c4c(ncn4C)n(C)c3=O)CC2)cc1	–	–	24	–	0	6.5	–	–	13	–	–	6	–	–	–	–	–
Cn1c(=O)c2c(ncn2CCCN2CCN(CCCOc3ccccc3)CC2)n(C)c1=O	–	–	30	–	48	28	–	–	88	–	–	35	–	–	–	–	–
Cc1cc(OCCCN2CCN(CC(O)Cn3c(=O)c4c(ncn4C)n(C)c3=O)CC2)cc(C)c1Cl (stereo not given)	–	–	0	–	8	8	–	–	2	–	–	53	–	–	–	–	–
Cn1c(=O)c2c(ncn2CCCN2CCN(CCCCOc3ccccc3)CC2)n(C)c1=O	–	–	35	–	0	0	–	–	80	–	–	26	–	–	–	–	–
